US20150025118A1, “ACTIVE COMPOUND COMPOSITIONS FOR VECTOR CONTROL OF INSECTICIDE-RESISTANT PESTS” (priority 2012, published 2015)

Legend:
[1] = system: Aedes aegypti; assay: Aedes test: contact on treated glazed tile, knock-down; type: in vivo
Method: To produce a suitable preparation of active compound combination the active compounds bendiocarb and clothianidin were dissolved in acetone (for the control group only one active compound was dissolved in acetone). The active compound combination preparation (and the active compound preparations) were pipetted onto a glazed tile and, after drying, adult mosquitoes of the species Aedes aegypti are placed onto the treated tile. The exposition time is 30 minutes.
(§1) 0.25 hours, 0.5 hours, 1 hour, 2 hour, 3 hour, 4 hour and 24 hours after contact to the treated surface, the knock-down proportion of the test animals in % is determined. Here, 100% means that all mosquitoes have been killed; 0% means that none of the mosquitoes has been killed.

[2] = system: Anopheles gambiae (target-site-resistant and metabolic-resistant strain: RSPH); assay: Target-site-resistant and metabolic-resistant Anopheles test: treated glazed tile, knock-down; type: in vivo
Method: (§2) The exposition time is 30 minutes.
as §1

[3] = system: mosquitoes; details: alone, stated as known, cited from earlier work
[4] = system: Anopheles funestus metabolic-resistant strain FUMOZ-R; assay: Metabolic-resistant Anopheles test: treated glazed tile, knock-down; type: in vivo
Method: as §2, §1

[5] = Clothianidin 5 mg/m^2 alone, 0.25 h after contact
[6] = Clothianidin 5 mg/m^2 alone, 0.5 h after contact
[7] = Clothianidin 5 mg/m^2 alone, 1 h after contact
[8] = Clothianidin 5 mg/m^2 alone, 2 h after contact
[9] = Clothianidin 5 mg/m^2 alone, 3 h after contact
[10] = Clothianidin 5 mg/m^2 alone, 4 h after contact
[11] = Clothianidin 5 mg/m^2 alone, 24 h after contact
[12] = Clothianidin 20 mg/m^2 alone, 0.25 h after contact
[13] = Clothianidin 20 mg/m^2 alone, 0.5 h after contact
[14] = Clothianidin 20 mg/m^2 alone, 1 h after contact
[15] = Clothianidin 20 mg/m^2 alone, 2 h after contact
[16] = Clothianidin 20 mg/m^2 alone, 3 h after contact
[17] = Clothianidin 20 mg/m^2 alone, 4 h after contact
[18] = Clothianidin 20 mg/m^2 alone, 24 h after contact
[19] = Bendiocarb 0.032 mg/m^2 alone, 0.25 h after contact
[20] = Bendiocarb 0.032 mg/m^2 alone, 0.5 h after contact
[21] = Bendiocarb 0.032 mg/m^2 alone, 1 h after contact
[22] = Bendiocarb 0.032 mg/m^2 alone, 2 h after contact
[23] = Bendiocarb 0.032 mg/m^2 alone, 3 h after contact
[24] = Bendiocarb 0.032 mg/m^2 alone, 4 h after contact
[25] = Bendiocarb 0.032 mg/m^2 alone, 24 h after contact
[26] = Bendiocarb 0.16 mg/m^2 alone, 0.25 h after contact
[27] = Bendiocarb 0.16 mg/m^2 alone, 0.5 h after contact
[28] = Bendiocarb 0.16 mg/m^2 alone, 1 h after contact
[29] = Bendiocarb 0.16 mg/m^2 alone, 2 h after contact
[30] = Bendiocarb 0.16 mg/m^2 alone, 3 h after contact
[31] = Bendiocarb 0.16 mg/m^2 alone, 4 h after contact
[32] = Bendiocarb 0.16 mg/m^2 alone, 24 h after contact
[33] = Dinotefuran 0.8 mg/m^2 alone, 0.25 h after contact
[34] = Dinotefuran 0.8 mg/m^2 alone, 0.5 h after contact
[35] = Dinotefuran 0.8 mg/m^2 alone, 1 h after contact
[36] = Dinotefuran 0.8 mg/m^2 alone, 2 h after contact
[37] = Dinotefuran 0.8 mg/m^2 alone, 3 h after contact
[38] = Dinotefuran 0.8 mg/m^2 alone, 4 h after contact
[39] = Dinotefuran 0.8 mg/m^2 alone, 24 h after contact
[40] = Dinotefuran 4 mg/m^2 alone, 0.25 h after contact
[41] = Dinotefuran 4 mg/m^2 alone, 0.5 h after contact
[42] = Dinotefuran 4 mg/m^2 alone, 1 h after contact
[43] = Dinotefuran 4 mg/m^2 alone, 2 h after contact
[44] = Dinotefuran 4 mg/m^2 alone, 3 h after contact
[45] = Dinotefuran 4 mg/m^2 alone, 4 h after contact
[46] = Dinotefuran 4 mg/m^2 alone, 24 h after contact

CN/C(=N\[N+](=O)[O-])NCc1cnc(Cl)s1 [Clothianidin, clothianidin]
25%: Effect % (knock-down) [2, 6]
10%: Effect % (knock-down) [1, 10] | Effect % (knock-down) [1, 16] | Effect % (knock-down) [1, 17] | Effect % (knock-down) ([2]; Clothianidin 50 mg/m^2 alone, 0.25 h after contact)
50%: Effect % (knock-down) [2, 10] | Effect % (knock-down) [2, 16]
30%: Effect % (knock-down) [1, 18] | Effect % (knock-down) [2, 12]
15%: Effect % (knock-down) [1, 11] | Effect % (knock-down) [1, 13] | Effect % (knock-down) [1, 15] | Effect % (knock-down) [2, 5]
45%: Effect % (knock-down) [2, 9] | Effect % (knock-down) [2, 15]
5%: Effect % (knock-down) [1, 5] | Effect % (knock-down) [1, 6] | Effect % (knock-down) [1, 7] | Effect % (knock-down) [1, 8] | Effect % (knock-down) [1, 9]
60%: Effect % (knock-down) ([2]; Clothianidin 50 mg/m^2 alone, 3 h after contact)
65%: Effect % (knock-down) [2, 11] | Effect % (knock-down) [2, 18] | Effect % (knock-down) ([2]; Clothianidin 50 mg/m^2 alone, 1 h after contact) | Effect % (knock-down) ([2]; Clothianidin 50 mg/m^2 alone, 2 h after contact) | Effect % (knock-down) ([2]; Clothianidin 50 mg/m^2 alone, 4 h after contact)
20%: Effect % (knock-down) [1, 14]
40%: Effect % (knock-down) [2, 14]
0%: Effect % (knock-down) [1, 12]
55%: Effect % (knock-down) [2, 17]
not efficient: efficiency on wood ([3]; on wood)
35%: Effect % (knock-down) [2, 7] | Effect % (knock-down) [2, 8] | Effect % (knock-down) [2, 13] | Effect % (knock-down) ([2]; Clothianidin 50 mg/m^2 alone, 0.5 h after contact)
95%: Effect % (knock-down) ([2]; Clothianidin 50 mg/m^2 alone, 24 h after contact)

CNC(=O)Oc1cccc2c1OC(C)(C)O2 [Bendiocarb, bendiocarb]
25%: Effect % (knock-down) ([2]; Bendiocarb 0.032 mg/m^2 alone (Table 3), 0.5 h after contact) | Effect % (knock-down) ([2]; Bendiocarb 0.032 mg/m^2 alone (Table 3), 1 h after contact) | Effect % (knock-down) ([2]; Bendiocarb 0.032 mg/m^2 alone (Table 3), 2 h after contact)
90%: Effect % (knock-down) ([2]; Bendiocarb 0.16 mg/m^2 alone (Table 2), 0.5 h after contact) | Effect % (knock-down) ([2]; Bendiocarb 0.16 mg/m^2 alone (Table 2), 4 h after contact) | Effect % (knock-down) ([2]; Bendiocarb 0.16 mg/m^2 alone (Table 2), 24 h after contact) | Effect % (knock-down) [4, 32]
5%: Effect % (knock-down) [1, 24] | Effect % (knock-down) [1, 27] | Effect % (knock-down) [1, 28] | Effect % (knock-down) [1, 29] | Effect % (knock-down) [1, 32] | Effect % (knock-down) ([2]; Bendiocarb 0.032 mg/m^2 alone (Table 2), 0.25 h after contact) | Effect % (knock-down) ([2]; Bendiocarb 0.032 mg/m^2 alone (Table 2), 0.5 h after contact) | Effect % (knock-down) ([2]; Bendiocarb 0.16 mg/m^2 alone (Table 2), 0.25 h after contact) | Effect % (knock-down) [4, 20] | Effect % (knock-down) [4, 21] | Effect % (knock-down) [4, 22]
15%: Effect % (knock-down) ([2]; Bendiocarb 0.032 mg/m^2 alone (Table 2), 1 h after contact) | Effect % (knock-down) ([2]; Bendiocarb 0.032 mg/m^2 alone (Table 2), 4 h after contact) | Effect % (knock-down) ([2]; Bendiocarb 0.16 mg/m^2 alone (Table 3), 0.25 h after contact)
0%: Effect % (knock-down) [1, 19] | Effect % (knock-down) [1, 20] | Effect % (knock-down) [1, 21] | Effect % (knock-down) [1, 22] | Effect % (knock-down) [1, 23] | Effect % (knock-down) [1, 25] | Effect % (knock-down) [1, 26] | Effect % (knock-down) [4, 19] | Effect % (knock-down) [4, 26]
35%: Effect % (knock-down) ([2]; Bendiocarb 0.032 mg/m^2 alone (Table 2), 24 h after contact) | Effect % (knock-down) ([2]; Bendiocarb 0.032 mg/m^2 alone (Table 3), 3 h after contact) | Effect % (knock-down) ([2]; Bendiocarb 0.032 mg/m^2 alone (Table 3), 4 h after contact)
50%: Effect % (knock-down) [4, 30]
95%: Effect % (knock-down) ([2]; Bendiocarb 0.16 mg/m^2 alone (Table 2), 1 h after contact) | Effect % (knock-down) ([2]; Bendiocarb 0.8 mg/m^2 alone (Table 2), 0.25 h after contact) | Effect % (knock-down) ([4]; Bendiocarb 0.8 mg/m^2 alone, 4 h after contact)
45%: Effect % (knock-down) [4, 29]
100%: Effect % (knock-down) ([2]; Bendiocarb 0.16 mg/m^2 alone (Table 2), 2 h after contact) | Effect % (knock-down) ([2]; Bendiocarb 0.16 mg/m^2 alone (Table 2), 3 h after contact) | Effect % (knock-down) ([2]; Bendiocarb 0.16 mg/m^2 alone (Table 3), 0.5 h after contact) | Effect % (knock-down) ([2]; Bendiocarb 0.16 mg/m^2 alone (Table 3), 1 h after contact) | Effect % (knock-down) ([2]; Bendiocarb 0.16 mg/m^2 alone (Table 3), 2 h after contact) | Effect % (knock-down) ([2]; Bendiocarb 0.16 mg/m^2 alone (Table 3), 3 h after contact) | Effect % (knock-down) ([2]; Bendiocarb 0.16 mg/m^2 alone (Table 3), 4 h after contact) | Effect % (knock-down) ([2]; Bendiocarb 0.16 mg/m^2 alone (Table 3), 24 h after contact) | Effect % (knock-down) ([2]; Bendiocarb 0.8 mg/m^2 alone (Table 2), 0.5 h after contact) | Effect % (knock-down) ([2]; Bendiocarb 0.8 mg/m^2 alone (Table 2), 1 h after contact) | Effect % (knock-down) ([2]; Bendiocarb 0.8 mg/m^2 alone (Table 2), 2 h after contact) | Effect % (knock-down) ([2]; Bendiocarb 0.8 mg/m^2 alone (Table 2), 3 h after contact) | Effect % (knock-down) ([2]; Bendiocarb 0.8 mg/m^2 alone (Table 2), 4 h after contact) | Effect % (knock-down) ([2]; Bendiocarb 0.8 mg/m^2 alone (Table 2), 24 h after contact) | Effect % (knock-down) ([4]; Bendiocarb 0.8 mg/m^2 alone, 0.25 h after contact) | Effect % (knock-down) ([4]; Bendiocarb 0.8 mg/m^2 alone, 0.5 h after contact) | Effect % (knock-down) ([4]; Bendiocarb 0.8 mg/m^2 alone, 1 h after contact) | Effect % (knock-down) ([4]; Bendiocarb 0.8 mg/m^2 alone, 2 h after contact) | Effect % (knock-down) ([4]; Bendiocarb 0.8 mg/m^2 alone, 3 h after contact) | Effect % (knock-down) ([4]; Bendiocarb 0.8 mg/m^2 alone, 24 h after contact)
40%: Effect % (knock-down) [4, 25]
20%: Effect % (knock-down) [4, 31]
80%: Effect % (knock-down) ([2]; Bendiocarb 0.032 mg/m^2 alone (Table 3), 24 h after contact) | Effect % (knock-down) [4, 27] | Effect % (knock-down) [4, 28]
not efficient: efficiency on concrete ([3]; on concrete (alkaline))
10%: Effect % (knock-down) [1, 30] | Effect % (knock-down) [1, 31] | Effect % (knock-down) ([2]; Bendiocarb 0.032 mg/m^2 alone (Table 2), 2 h after contact) | Effect % (knock-down) ([2]; Bendiocarb 0.032 mg/m^2 alone (Table 2), 3 h after contact) | Effect % (knock-down) ([2]; Bendiocarb 0.032 mg/m^2 alone (Table 3), 0.25 h after contact) | Effect % (knock-down) [4, 23] | Effect % (knock-down) [4, 24]

CN/C(=N/CC1CCOC1)N[N+](=O)[O-] (stereo not drawn) [Dinotefuran, dinotefuran]
40%: Effect % (knock-down) [2, 43] | Effect % (knock-down) [4, 45]
10%: Effect % (knock-down) [2, 33] | Effect % (knock-down) [2, 36] | Effect % (knock-down) [4, 37] | Effect % (knock-down) [4, 41] | Effect % (knock-down) [4, 42]
5%: Effect % (knock-down) [2, 34] | Effect % (knock-down) [2, 35] | Effect % (knock-down) [2, 41] | Effect % (knock-down) [4, 35]
15%: Effect % (knock-down) [2, 40] | Effect % (knock-down) [2, 42] | Effect % (knock-down) [4, 38] | Effect % (knock-down) [4, 40] | Effect % (knock-down) [4, 43]
65%: Effect % (knock-down) [2, 45] | Effect % (knock-down) [2, 46]
35%: Effect % (knock-down) [2, 39] | Effect % (knock-down) [2, 44] | Effect % (knock-down) [4, 39]
20%: Effect % (knock-down) [2, 37]
0%: Effect % (knock-down) [4, 33] | Effect % (knock-down) [4, 34] | Effect % (knock-down) [4, 36]
30%: Effect % (knock-down) [2, 38] | Effect % (knock-down) [4, 44]
55%: Effect % (knock-down) [4, 46]
